Results as given in US5591758A, “Organic nitrates, processes for their preparation and their use in the treatment of cardiovascular diseases” (Laboratoires Hoechst, SA, priority 1991, dated 1997).
Where a name gives a salt, the structure may show the parent alone. Blank lines part the entries; values can stand above or below the compound they belong to.

Legend:
thoracic aorta = assay: Vasorelaxant effect on isolated vessels (rat thoracic aorta rings without endothelium, precontracted with noradrenalin); set-up: species or system Wistar rats; conditions: for Emax: Rattus norvegicus, maximum inhibition of noradrenalin effect, 10^-8 to 10^-4 M substance, read-out: Maximum Relaxation; for IC50: rat aorta, 10^-7 M noradrenalin contraction
Procedure: Vasorelaxant effect of the compounds according to the invention on isolated vessels.
Adult Wistar rats weighing between 250 and 350 g are anaesthetised by intraperitoneal injection of sodium pentobarbital (30 mg/kg). The thoracic aorta is rapidly removed and placed in a refrigerated and oxygenated solution of bicarbonate buffer of the Krebs-Ringer type (composition [mM]: NaCl, 118; KCl, 4.7; CaCl2, 2.5; MgSO4, 1.2; KH2 PO4, 1.2; NaHCO3, 25.0; disodium calcium salt of EDTA, 0.026; glucose 11.1). The aorta is dissected with the aim of removing the connective tissue and then cut into 6 rings (length 5-10 mm). The endothelium is removed by moderate abrasion of the intimal surface of the aortic segments with the aid of a pair of tweezers. These segments are then placed between two hooks in an isolated organ cell filled with 25 ml of bicarbonate buffer (pH 7.4), thermostat-controlled at 37° C. and oxygenated with the aid of a 95% O2 /5% CO2 mixture (pH 7.4). One of the hooks is fixed to a fixed point, while the second is connected to a transducer with the aim of measuring the variations in isometric voltage (expressed in grams). After an equilibration period of 30 min., the segments are progressively withdrawn so as to attain the level of base voltage for which the contractor response to noradrenalin (10^-7 M) is maximum (optimum voltage; average 2 g). The absence of endothelium is verified by addition of a single concentration of acetylcholine (10^-6 M), after precontraction of the vessels by noradrenalin (10^-7 M). The integrity of the vascular smooth muscle is also verified by adding a single concentration of a vasodilator whose response is independent of the presence of the endothelium, SIN-1 (10^-5 M). After this initial procedure, the aortas are washed, equilibrated for a period of 30 min and then recontracted (10^-7 M noradrenalin). The relaxant effect of the substance to be tested is then evaluated by adding increasing concentrations of this substance (from 10^-8 to 10^-4 M). The maximum inhibition of the concentration caused by noradrenalin (expressed as a percentage) is then calculated ("maximum relaxation"). When this maximum relaxation is greater than 50%, the concentration of substance tested producing a 50% inhibition of the maximum contraction (IC50) is calculated. Table V below collates the IC50 and the maximum relaxation percentages for the various compounds tested.

anesthetised dogs = assay: Haemodynamic effects on anesthetised dogs; assay type: in vivo, dogs (labrador/harrier cross)
Procedure: Haemodynamic effects of the compounds according to the invention on anesthetised pigs or dogs
The dogs, weighing between 16 and 26 kg, are the progeny of a labrador/harrier cross.
In the case of dogs the anesthesia is induced by sodium pentobarbitol (45 mg/jg i.v.) and maintained with an i.v. perfusion (flow rate of 8 mg/kg/h).
The pigs or dogs are placed under artificial respiration in ambient air. Analysis of the blood gases (pO2, pCO2) is carried out at regular intervals and oxygen can be supplied via the respirator, if necessary.
The haemodynamic parameters recorded include the left ventricular pressure (LVP; Millar PC350 Tip catheter inserted via the carotid artery), systemic blood pressure (BPs, BPd; full catheter in a femoral artery), the end pressure of the left ventricular diastole (LVEDP), the ventricular contractility (LVPdp/dtmax) and the heart rate (HR).
Following an equilibration period of the order of 45 minutes, the compounds studied are administered intraduodenally (i.d.) or intraveinously (i.v.) to several animals (1 to 4). The haemodynamic variables are recorded continuously for 1 to 3 hours, as a function of the period of action of the compound.
The effects of the compounds studied are shown as the absolute difference with respect to the base value (bv) measured before administration of the compounds and are shown in Table VII (a,b,c).
An antianginal activity is estimated by a fall in the BPs and the LVEDP (fall in venous return).

- IC50 (thoracic aorta): > 100 µM
SMILES: O=C(O[C@@H]1CO[C@H]2[C@@H]1OC[C@@H]2O[N+](=O)[O-])[C@@H]1CSCN1 [Compound 25, 5-O-[(4-L-Thiazolidinyl)carbonyl]-2-O-nitro-1,4:3,6-dianhydro-D-glucitol monohydrochloride]
- Emax (thoracic aorta): 35%
- BPs (min), period of action (anesthetised dogs; dogs, 10 mg/kg i.d.): > 60 min
- BPs, difference to base value (anesthetised dogs; dogs, 10 mg/kg i.d.): -30 mmHg
- LVEDP (min), period of action (anesthetised dogs; dogs, 10 mg/kg i.d.): > 60 min
- LVEDP, difference to base value (anesthetised dogs; dogs, 10 mg/kg i.d.): -3,0 mmHg

SMILES: CC(=O)NCSC[C@H](NC(=O)OC(C)(C)C)C(=O)O[C@@H]1CO[C@H]2[C@@H]1OC[C@@H]2O[N+](=O)[O-] [Compound 26, S-[(Acetylamino)methyl]-N-[(t-butoxy)carbonyl]-L-cysteine ester of 2-O-nitro-1,4:3,6-dianhydro-D-glucitol]
- Emax (thoracic aorta): 70%
- IC50 (thoracic aorta): 80 µM
- BPs (min), period of action (anesthetised dogs; dogs, 10 mg/kg i.v.): > 90 min
- BPs, difference to base value (anesthetised dogs; dogs, 10 mg/kg i.v.): -10 mmHg
- LVEDP (min), period of action (anesthetised dogs; dogs, 10 mg/kg i.v.): > 90 min
- LVEDP, difference to base value (anesthetised dogs; dogs, 10 mg/kg i.v.): 2,0 mmHg

- IC50 (thoracic aorta): > 100 µM
SMILES: CC(=O)NCSC[C@H](N)C(=O)O[C@@H]1CO[C@H]2[C@@H]1OC[C@@H]2O[N+](=O)[O-] [Compound 27, S-[(Acetylamino)methyl]-L-cysteine ester of 2-O-nitro-1,4:3,6-dianhydro-D-glucitol monohydrochloride]
- Emax (thoracic aorta): 14%
- BPs (min), period of action (anesthetised dogs; dogs, 3 mg/kg i.v.): > 90 min
- BPs, difference to base value (anesthetised dogs; dogs, 3 mg/kg i.v.): -15 mmHg
- LVEDP (min), period of action (anesthetised dogs; dogs, 3 mg/kg i.v.): > 90 min
- LVEDP, difference to base value (anesthetised dogs; dogs, 3 mg/kg i.v.): -1,0 mmHg

SMILES: CC(C)(C)OC(=O)N[C@@H](CSSc1ccccc1[N+](=O)[O-])C(=O)N[C@H]1CO[C@H]2[C@@H]1OC[C@@H]2O[N+](=O)[O-] [Compound 35, S-[(2-Nitrophenyl)thio]-N-[(t-butoxy)carbonyl]-L-cysteine amide of 5-amino-5-deoxy-2-O-nitro-1,4:3,6-dianhydro-L-iditol]
- Emax (thoracic aorta): 46%
- IC50 (thoracic aorta): 100 µM
- BPs (min), period of action (anesthetised dogs; dogs, 3 mg/kg i.v.): > 30 min
- BPs, difference to base value (anesthetised dogs; dogs, 3 mg/kg i.v.): -10 mmHg
- LVEDP (min), period of action (anesthetised dogs; dogs, 3 mg/kg i.v.): 0 min
- LVEDP, difference to base value (anesthetised dogs; dogs, 3 mg/kg i.v.): 0,0 mmHg

SMILES: CSCC[C@H](NC(=O)OC(C)(C)C)C(=O)N[C@H]1CO[C@H]2[C@@H]1OC[C@@H]2O[N+](=O)[O-] [Compound 37, N-[(t-Butoxy)carbonyl]-L-methionine amide of 5-amino-5-deoxy-2-O-nitro-1,4:3,6-dianhydro-L-iditol]
- Emax (thoracic aorta): 100%
- IC50 (thoracic aorta): 13 µM
- BPs (min), period of action (anesthetised dogs; dogs, 10 mg/kg i.v.): > 90 min
- BPs, difference to base value (anesthetised dogs; dogs, 10 mg/kg i.v.): -25 mmHg
- LVEDP (min), period of action (anesthetised dogs; dogs, 10 mg/kg i.v.): 30 min
- LVEDP, difference to base value (anesthetised dogs; dogs, 10 mg/kg i.v.): -2,0 mmHg

- IC50 (thoracic aorta): > 100 µM
SMILES: O=C(N[C@H]1CO[C@H]2[C@@H]1OC[C@H]2O[N+](=O)[O-])[C@@H]1CSCN1 [Compound 40, 2-[[(4-L-Thiazolidinyl)carbonyl]amino]-2-deoxy-5-O-nitro-1,4:3,6-dianhydro-D-glucitol monohydrochloride]
- Emax (thoracic aorta): 38%
- BPs (min), period of action (anesthetised dogs; dogs, 3 mg/kg i.v.): > 90 min
- BPs, difference to base value (anesthetised dogs; dogs, 3 mg/kg i.v.): -10 mmHg
- LVEDP (min), period of action (anesthetised dogs; dogs, 3 mg/kg i.v.): > 90 min
- LVEDP, difference to base value (anesthetised dogs; dogs, 3 mg/kg i.v.): -1,0 mmHg

SMILES: CC(=O)NCSC[C@H](NC(=O)OC(C)(C)C)C(=O)N[C@H]1CO[C@H]2[C@@H]1OC[C@H]2O[N+](=O)[O-] [Compound 41, S-[(Acetylamino)methyl]-N-[(t-butoxy)carbonyl]-L-cysteine amide of 2-amino-2-deoxy-5-O-nitro-1,4:3,6-dianhydro-D-glucitol]
- Emax (thoracic aorta): 70%
- IC50 (thoracic aorta): 63 µM
- BPs (min), period of action (anesthetised dogs; dogs, 3 mg/kg i.d.): > 180 min
- BPs, difference to base value (anesthetised dogs; dogs, 3 mg/kg i.d.): -25 mmHg
- LVEDP (min), period of action (anesthetised dogs; dogs, 3 mg/kg i.d.): 0 min
- LVEDP, difference to base value (anesthetised dogs; dogs, 3 mg/kg i.d.): 0,0 mmHg

- IC50 (thoracic aorta): 33 µM
SMILES: CC(=O)NCSC[C@H](N)C(=O)N[C@H]1CO[C@H]2[C@@H]1OC[C@H]2O[N+](=O)[O-] [Compound 42, S-[(Acetylamino)methyl]-L-cysteine amide of 2-amino-2-deoxy-5-O-nitro-1,4:3,6-dianhydro-D-glucitol monohydrochloride]
- Emax (thoracic aorta): 92%
- BPs (min), period of action (anesthetised dogs; dogs, 10 mg/kg i.v.): > 90 min
- BPs, difference to base value (anesthetised dogs; dogs, 10 mg/kg i.v.): -10 mmHg
- LVEDP (min), period of action (anesthetised dogs; dogs, 10 mg/kg i.v.): 0 min
- LVEDP, difference to base value (anesthetised dogs; dogs, 10 mg/kg i.v.): 0,0 mmHg

SMILES: CSCC[C@H](NC(=O)OC(C)(C)C)C(=O)N[C@H]1CO[C@H]2[C@@H]1OC[C@H]2O[N+](=O)[O-] [Compound 43, N-[(t-Butoxy)carbonyl]-L-methionine amide of 2-amino-2-deoxy-5-O-nitro-1,4:3,6-dianhydro-D-glucitol]
- Emax (thoracic aorta): 80%
- IC50 (thoracic aorta): 32 µM
- BPs (min), period of action (anesthetised dogs; dogs, 10 mg/kg i.v.): 90 min
- BPs, difference to base value (anesthetised dogs; dogs, 10 mg/kg i.v.): -20 mmHg
- LVEDP (min), period of action (anesthetised dogs; dogs, 10 mg/kg i.v.): 60 min
- LVEDP, difference to base value (anesthetised dogs; dogs, 10 mg/kg i.v.): -1,0 mmHg

- IC50 (thoracic aorta): 38 µM
SMILES: O=C(CNC(=O)[C@@H]1CCCN1)N[C@H]1CO[C@H]2[C@@H]1OC[C@@H]2O[N+](=O)[O-] [Compound 49, 5-[[2-[[((2S)-2-pyrrolidinyl)carbonyl]amino]-1-oxoethyl]amino]-5-deoxy-2-O-nitro-1,4:3,6-dianhydro-L-iditol monohydrochloride]
- Emax (thoracic aorta): 100%
- BPs (min), period of action (anesthetised dogs; dogs, 1,1 mg/kg i.d.): > 240 min
- BPs, difference to base value (anesthetised dogs; dogs, 1,1 mg/kg i.d.): -32 mmHg

- IC50 (thoracic aorta): 87 µM
SMILES: CC(C)(C)OC(=O)N1CSC[C@H]1C(=O)NCC(=O)N[C@H]1CO[C@H]2[C@@H]1OC[C@@H]2O[N+](=O)[O-] [Compound 60]
- Emax (thoracic aorta): 53%
- BPs (min), period of action (anesthetised dogs; dogs, 3 mg/kg i.d.): > 60 min
- BPs, difference to base value (anesthetised dogs; dogs, 3 mg/kg i.d.): -15 mmHg
- LVEDP (min), period of action (anesthetised dogs; dogs, 3 mg/kg i.d.): 0 min
- LVEDP, difference to base value (anesthetised dogs; dogs, 3 mg/kg i.d.): 0,0 mmHg

SMILES: C[C@H](NC(=O)[C@@H]1CSCN1C(=O)OC(C)(C)C)C(=O)N[C@H]1CO[C@H]2[C@@H]1OC[C@@H]2O[N+](=O)[O-] [Compound 61, 5-[[2-[[(3-t-butoxycarbonyl-4-n-thiazolidinyl)carbonyl]amino]-1-((2S)-2-methyl)-oxoethyl]amino]-5-deoxy-2-O-nitro-1,4:3,6-dianhydro-L-iditol]
- Emax (thoracic aorta): 100%
- IC50 (thoracic aorta): 32 µM
- BPs (min), period of action (anesthetised dogs; dogs, 3 mg/kg i.d.): > 180 min
- BPs, difference to base value (anesthetised dogs; dogs, 3 mg/kg i.d.): -25 mmHg
- LVEDP (min), period of action (anesthetised dogs; dogs, 3 mg/kg i.d.): > 180 min
- LVEDP, difference to base value (anesthetised dogs; dogs, 3 mg/kg i.d.): -1,5 mmHg

- IC50 (thoracic aorta): 55 µM
SMILES: C[C@H](NC(=O)[C@@H]1CSCN1)C(=O)N[C@H]1CO[C@H]2[C@@H]1OC[C@@H]2O[N+](=O)[O-] [Compound 62, 5-[[2-[[(4-L-thiazolidinyl)carbonyl]amino]-1-((2S)-2-methyl)-oxoethyl]amino]-5-deoxy-2-O-nitro-1,4:3,6-dianhydro-L-iditol monohydrochloride]
- Emax (thoracic aorta): 72%
- BPs (min), period of action (anesthetised dogs; dogs, 3 mg/kg i.d.): > 30 min
- BPs, difference to base value (anesthetised dogs; dogs, 3 mg/kg i.d.): -35 mmHg

SMILES: CC(C)[C@H](NC(=O)[C@@H]1CSCN1C(=O)OC(C)(C)C)C(=O)N[C@H]1CO[C@H]2[C@@H]1OC[C@@H]2O[N+](=O)[O-] [Compound 63, 5-[[2-[[(3-t-butoxycarbonyl-4-L-thiazolidinyl)carbonyl]amino]-1-((2S)-2-isopropyl)-oxoethyl]amino]-5-deoxy-2-O-nitro-1,4:3,6-dianhydro-L-iditol]
- Emax (thoracic aorta): 70%
- IC50 (thoracic aorta): 70 µM
- BPs (min), period of action (anesthetised dogs; dogs, 3 mg/kg i.v.): > 60 min
- BPs, difference to base value (anesthetised dogs; dogs, 3 mg/kg i.v.): -20 mmHg
- LVEDP (min), period of action (anesthetised dogs; dogs, 3 mg/kg i.v.): 60 min
- LVEDP, difference to base value (anesthetised dogs; dogs, 3 mg/kg i.v.): -1,0 mmHg
